According to patent US12691124B2, “Methods of controlling and improving brain health” (ICAHN SCHOOL OF MEDICINE AT MOUNT SINAI, priority 2019, dated 2026):

Assays:
BRD4 = molecular target: T1, BRD4 (Mus musculus, UniProt Q9ESU6); experiment: ChIP sequencing of BRD4 chromatin occupancy in neurons; format: cell-based
T1 construct: Primary cortical neurons express BRD2/3/4, with BRD2 and BRD4 being the most abundant; endogenous in cells; host or cells: primary cortical neuronal cultures (mouse)
Method: Chromatin Immunoprecipitation with Sequencing. Primary cortical neuronal cultures were washed once with PBS then fixed for 10 minutes with a 1% formaldehyde solution in PBS with protease inhibitors (Sigma #P8340) at room temperature. Fixation was quenched adding glycine to a final concentration of 0.125M (5 minutes, room temperature). 10e6 fixed cells were resuspended in 1 ml of lysis buffer (50 mM Hepes KOH, pH7.5, 140 mM NaCl, 1 mM EDTA, 10% glycerol, 0.5% NP-40, 0.25% Triton X-100) and 10 ul of protease inhibitor cocktail (PIC). Samples were rotated for 10 minutes at 4 degrees then spun at 1350 g at 4 C for 10 minutes. Pellets were resuspended in 1 ml of lysis buffer 2 (10 mM Tris-HCl pH8.0, 200 mM NaCl, 1 mM EDTA, 0.5 mM EGTA) and 10 ul PIC.). 5e6 nuclei were sonicated in lysis buffer 3 (10 mM Tris-HCl pH8.0, 100 mM NaCl, 1 mM EDTA, 0.5 mM EGTA, 0.1% Na-Deoxicholate, 0.5% N-Lauroylsarcosine) at 4 degrees for 5 cycles of 30 seconds ON/30 seconds OFF using the Diagenode bioruptor. After, 30 ul of 10% Triton-X100 was added to each sample and then spun for 15 minutes at 20,000 g at 4 degrees. Sonication efficiency was checked by running the samples on a 2% agarose gel to confirm enrichment for fragments from 200-500 bps.
Streptavidin M-280 dynabeads were blocked with 0.5% BSA solution and coupled to 7 ug of antibody (Brd4 #Ab84778, Brd2 Bethyl #A302-583A, Pol2 Ser5 #Ab5408) for at least 8 hours at 4 degrees, rotating. Antibody-coupled beads were then added to sonicated chromatin (20e6 cells for Brd2/Brd4, 10e6 for Pol2) and incubated overnight at 4 degrees. After washing the IPs eight times with wash buffer (50 mM Hepes-KOH pH7.6, 100 mM LiCl, 1 mM EDTA, 1% NP-40, 0.7% Na-Deoxycholate) and once with TE buffer (10 mM Tris-HCl, 1 mM EDTA, 50 mM NaCl), Chromatin was eluted from magnetic beads in 200 ul elution buffer ([…] Tris-HCl pH8.0, 10 mM EDTA, 1% SDS) for 45 minutes at 65 degrees. Samples were de-crosslinked overnight at 65 degrees and proteins and RNA were removed by incubating with RNAse and proteinase k. Samples were purified using the Qiagen PCR purification kit according to the manufacturers protocol.
Samples were end-repaired using the End-IT DNA End-Repair Kit (#ER0720). After 45 minutes incubation, samples were purified using the Qiagen PCR Clean up kit as described above. Samples were adenylated using a reaction mix (200 uM dATP, 1× Klenow buffer NEB2, Klenow Fragment (3′ to 5′ exo-), NEB M0212L) and incubating at 37 degrees for 30 minutes. […] Raw sequencing reads were then aligned to the mouse mm9 genome using the default settings of Bowtie (v2.2.0)87. Only uniquely mapped reads were retained, and the alignments were subsequently filtered using the SAMtools package (v0.1.19)88 to remove duplicate reads. […]

R6/2 mice = experiment: Survival of R6/2 Huntington's mouse model; conditions: 30 mg/kg i.p. daily from 6 weeks of age for 5 weeks

SMILES: CC(=O)N1c2ccc(-c3ccc(CN4CCCCC4)cc3)cc2[C@H](Nc2ccccc2)CC1C (stereo in doubt) [IBET858]
- genes that lose BRD4 at the transcriptional start site (BRD4; 6 h IBET858): 2226 genes
- genes with gain of BRD4 at the transcriptional start site (BRD4; 6 h IBET858): 295 genes
- loci with reduced occupancy of BRD4 (BRD4; DIV7, 6 h IBET858): 4756 loci
- loci with increased occupancy of BRD4 (BRD4; day 7, 6 h IBET858): 1827 loci
- survival (R6/2 mice): rescued survival
